Experimental data reported in US8802704B2, “Oxadiazole derivatives” (Merck Serono SA, priority 2009, dated 2014).
Structures can show the parent of a compound that is named as a salt. Where two headings read alike, the source gives them in different places.

Key:
[1] = target: S1P3 (Homo sapiens, UniProt Q99500); test: Receptor binding assay, [33P]sphingosine 1-phosphate competition (SPA), S1P3
Description: Membranes were prepared from CHO cells expressing S1P1 or S1P3 for use in ligand and […] binding studies. Cells were suspended in 50 mM TRIS, pH 7.4, 2 mM EDTA, 250 mM Sucrose (buffer A) and 1× Complete protease inhibitor cocktail (Roche), and disrupted at 4° C. by N2 decompression using a cell disruption bomb (Parr Instrument). Following centrifugation at 1000 RPM for 10 min at 4° C., the supernatant was diluted (2×) in buffer A and centrifuged again at 19000 RPM for 75 min at 4° C. The pellet was then suspended in 10 mM HEPES, pH 7.4, 1 mM EDTA, 250 mM Sucrose (Buffer B), and 1× Complete EDTA-free protease inhibitor cocktail and homogenized using a potter. Membranes were flash frozen in liquid N2 and stored at −80° C.
[33P]sphingosine 1-phosphate (3000 Ci/mmol; American Radiolabeled Chemicals, Inc.) was added to test compounds in 20% DMSO by competition. Membranes and WGA SPA beads (GE Healthcare) were added to give a final volume of 100 μl in 96-well plates or 50 μl in 384-well plates with assay concentrations of 30 pM or 15 pM [33P]sphingosine 1-phosphate (respectively for S1P1 or S1P3), 50 mM HEPES, pH 7.5, 5 mM MgCl2, 100 mM NaCl, 0.4% fatty acid-free BSA, 1-5 μg/well of proteins in 96-well plates vs 0.6-1 μg/well of proteins in 384-well plates and 100 μg/well of WGA SPA beads in 96-well plates vs 75 μg/well of WGA SPA beads in 384-well plates. Binding was performed for 60 min at RT on a shaker and bound radioactivity was measured on a PerkinElmer 1450 MicroBeta counter. Triplicate samples were averaged and normalized as percentage of inhibition relative to total binding (only DMSO in well) and non-specific binding (1000-fold excess of unlabeled S1P). Binding data were analyzed using the GraphPad Prism program or Genedata software.

[2] = target: T1, S1P1 (Homo sapiens, UniProt P21453); test: S1P1 internalization assay in S1P1-U2OS cells (cell imaging); type: cell-based; details: U2OS cells expressing S1P1-EGFP, 1 hour
Description: Cellular functional assays: Internalization of Sphingosine-1-phosphate receptor 1 (S1P1) in a human Cell line (U2OS) in a 384-well format using a Cell Imaging analysis.
The S1P1 internalization assay was performed in 384 well plates (Corning® 384 black with clear bottom 3712) using S1P1-U2OS cells from Biolmage (C039A), a human epithelial cell line (Human Bone Osteosarcoma Epithelial Cells). These cells expressed the human S1P1 Receptor fused to the green fluorescent protein (EGFP). A standard CMV promoter (cytomegalovirus promoter) controls the expression of S1P1-EGFP and continuous expression was maintained by addition of geneticin to the culture medium.
S1P1Receptor desensitization induced the internalization of the membrane-localized S1P1-EGFP fusion protein to endosomes, which can be monitored by cell imaging analysis. The cells are plated in low serum medium (Dulbecco's Modified Eagle Medium (DMEM) with Glutamax-1 and high glucose, 1% Penicillin/Streptomycin, 1% Fetal Calf Serum (FCS), 0.5 mg/ml Geneticin) overnight.
The next day, S1P1-U2OS cells are incubated in 20 μl serum free medium (DMEM with Glutamax-1 and high glucose, 0.1% of fatty-acid free Bovin Serum Albumin (BSA), 10 mM, N′-2-Hydroxyethylpiperazine-N′-2 ethanesulphonic acid (HEPES) 1M) for 2 hours at 37° C./5% CO2. The cells are then treated with 4 μl compounds/agonists (6×/3% DMSO) for a total volume of 24 μl, and plates are incubated for 1 hour at 37° C./5% CO2.
S1P1-U2OS cells are fixed with 25 μl Paraformaldehyde 8% and stained with Hoechst 33345 dye (1:1000) for 20 minutes.
They were then washed 3 times with Phosphate Buffered Saline (PBS) and plates are sealed. The internalization of the receptor S1P1-EGFP is measured on Cellomics by calculating the “spot count per object” (“object” corresponds to nuclear and “spot” corresponds to S1P1-EGFP receptor). Internalization data were observed thanks to vHCS View and analyzed using Genedata® software.
Target sequence in this assay (P21453 whole entry): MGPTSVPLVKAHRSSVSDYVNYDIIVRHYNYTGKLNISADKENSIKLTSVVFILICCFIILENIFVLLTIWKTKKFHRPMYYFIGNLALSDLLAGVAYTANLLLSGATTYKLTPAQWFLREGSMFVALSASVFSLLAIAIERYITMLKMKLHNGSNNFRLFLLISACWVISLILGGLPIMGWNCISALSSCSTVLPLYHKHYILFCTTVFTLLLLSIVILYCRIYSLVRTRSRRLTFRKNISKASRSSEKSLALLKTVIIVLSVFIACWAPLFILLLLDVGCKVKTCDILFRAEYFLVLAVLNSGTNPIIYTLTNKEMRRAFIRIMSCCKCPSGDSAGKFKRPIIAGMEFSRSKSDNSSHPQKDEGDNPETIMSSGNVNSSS

[3] = target: T1, S1P1; test: Receptor binding assay, [33P]sphingosine 1-phosphate competition (SPA), S1P1
Description: Cells were suspended in 50 mM TRIS, pH 7.4, 2 mM EDTA, 250 mM Sucrose (buffer A) and 1× Complete protease inhibitor cocktail (Roche), and disrupted at 4° C. by N2 decompression using a cell disruption bomb (Parr Instrument). […] The pellet was then suspended in 10 mM HEPES, pH 7.4, 1 mM EDTA, 250 mM Sucrose (Buffer B), and 1× Complete EDTA-free protease inhibitor cocktail and homogenized using a potter. Membranes were flash frozen in liquid N2 and stored at −80° C.
[33P]sphingosine 1-phosphate (3000 Ci/mmol; American Radiolabeled Chemicals, Inc.) was added to test compounds in 20% DMSO by competition. […] Triplicate samples were averaged and normalized as percentage of inhibition relative to total binding (only DMSO in well) and non-specific binding (1000-fold excess of unlabeled S1P). Binding data were analyzed using the GraphPad Prism program or Genedata software.
Target sequence in this assay (P21453 whole entry, species assumed): as the sequence (P21453 whole entry) above

[4] = 96 well-plate, read-out: S1P3 binding Ki (M) (96 well-plate)
[5] = 384 well-plate, read-out: S1P3 binding Ki (M) (384 well-plate)
[6] = 96 well-plate, read-out: S1P1 binding Ki (M) (96 well-plate)
[7] = 384 well-plate, read-out: S1P1 binding Ki (M) (384 well-plate)

Sequence of S1P3 (Q99500 whole entry, species assumed): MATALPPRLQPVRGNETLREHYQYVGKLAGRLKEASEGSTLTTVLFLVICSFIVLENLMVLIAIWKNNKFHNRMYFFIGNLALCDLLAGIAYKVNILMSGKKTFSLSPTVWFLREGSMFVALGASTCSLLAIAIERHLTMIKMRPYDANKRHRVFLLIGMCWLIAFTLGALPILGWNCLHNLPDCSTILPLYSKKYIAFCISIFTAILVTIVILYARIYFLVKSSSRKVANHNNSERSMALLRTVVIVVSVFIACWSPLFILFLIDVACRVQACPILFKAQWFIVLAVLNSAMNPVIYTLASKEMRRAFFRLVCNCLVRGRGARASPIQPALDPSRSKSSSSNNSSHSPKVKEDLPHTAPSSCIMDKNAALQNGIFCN

melting point [°C]	Ki [1, 4] [M]	Ki [1, 5] [M]	EC50 [2] [nM]	Ki [3, 6] [M]	Ki [3, 7] [M]	Structure (SMILES)
183	–	–	–	–	–	Cc1ccccc1-c1ccc(-c2nc(-c3ccc(CN(C)CC(=O)O)c(F)c3)no2)cc1C(F)(F)F (as salt: hydrochloride) [Example 70, N-(2-fluoro-4-{5-[2′-methyl-2-(trifluoromethyl)biphenyl-4-yl]-1,2,4-oxadiazol-3-yl}benzyl)-N-methylglycine]
207	–	–	–	–	–	COCc1cc(-c2nc(-c3cccc(CN(C)CC(=O)O)c3)no2)ccc1-c1ccccc1C(F)(F)F (as salt: hydrochloride) [Example 49, N-(3-{5-[2-(methoxymethyl)-2′-(trifluoromethyl)biphenyl-4-yl]-1,2,4-oxadiazol-3-yl}benzyl)-N-methylglycine]
207	–	–	–	–	–	Cc1cc(-c2nc(-c3cc(F)cc(CN(C)CC(=O)O)c3)no2)ccc1-c1ccccc1C(F)(F)F (as salt: hydrochloride) [Example 104, N-(3-fluoro-5-{5-[2-methyl-2′-(trifluoromethyl)biphenyl-4-yl]-1,2,4-oxadiazol-3-yl}benzyl)-N-methylglycine]
–	8.31e-07	8.55e-07	11.4	4.12e-10	2.74e-09	Cc1ccccc1-c1ccc(-c2nc(-c3ccc(CN(C)CC(=O)O)cc3)no2)cc1C(F)(F)F [Example 81, N-methyl-N-(4-{5-[2′-methyl-2-(trifluoromethyl)biphenyl-4-yl]-1,2,4-oxadiazol-3-yl}benzyl)glycine]
–	9.43e-06	9.67e-06	56.1	1.04e-09	3.49e-09	Cc1cc(-c2nc(-c3ccc(CN(C)CC(=O)O)cc3)no2)ccc1-c1ccccc1C(F)(F)F [Example 100, N-methyl-N-(4-{5-[2-methyl-2′-(trifluoromethyl)biphenyl-4-yl]-1,2,4-oxadiazol-3-yl}benzyl)glycine]
–	–	2.97e-07	18	–	2.07e-09	Cc1ccccc1-c1ccc(-c2nc(-c3ccc(CN(C)CC(=O)O)c(F)c3F)no2)cc1C(F)(F)F [Example 150, 2-((2,3-difluoro-4-(5-(2-(trifluoromethyl)-2′-methylbiphenyl-4-yl)-1,2,4-oxadiazol-3-yl)benzyl)(methyl)amino)acetic acid]
–	7.71e-07	1.18e-06	25.3	8.49e-10	1.24e-08	COCc1cc(-c2nc(-c3cccc(CN(C)CC(=O)O)c3)no2)ccc1-c1ccc(F)cc1C(F)(F)F [Example 50, N-(3-{5-[4′-fluoro-2-(methoxymethyl)-2′-(trifluoromethyl)biphenyl-4-yl]-1,2,4-oxadiazol-3-yl}benzyl)-N-methylglycine]
–	–	9.76e-07	23.3	–	5.33e-09	Cc1ccccc1-c1ccc(-c2nc(-c3ccc(CN(C)CC(=O)O)c(Cl)c3)no2)cc1C(F)(F)F [Example 129, 2-((4-(5-(2-(trifluoromethyl)-2′-methylbiphenyl-4-yl)-1,2,4-oxadiazol-3-yl)-2-chlorobenzyl)(methyl)amino)acetic acid]
–	9.43e-06	6.59e-06	69.3	–	5.63e-09	Cc1cc(-c2nc(-c3cccc(CN(C)CC(=O)O)c3)no2)ccc1-c1ccccc1C(F)(F)F [Example 101, N-methyl-N-(3-{5-[2-methyl-2′-(trifluoromethyl)biphenyl-4-yl]-1,2,4-oxadiazol-3-yl}benzyl)glycine]
–	1.49e-07	1.92e-07	6.26	–	4.95e-10	Cc1ccccc1-c1ccc(-c2nc(-c3cccc(CN(C)CC(=O)O)c3F)no2)cc1C(F)(F)F [Example 112, N-(2-fluoro-3-{5-[2′-methyl-2-(trifluoromethyl)biphenyl-4-yl]-1,2,4-oxadiazol-3-yl}benzyl)-N-methylglycine]
–	4.67e-08	–	8.97	2.21e-10	1.47e-09	CCN(CCC(=O)O)Cc1cccc(-c2noc(-c3ccc(-c4ccccc4C)c(C(F)(F)F)c3)n2)c1 [Example 69, N-ethyl-N-(3-{5-[2′-methyl-2-(trifluoromethyl)biphenyl-4-yl]-1,2,4-oxadiazol-3-yl}benzyl)-beta-alanine]
